A short description of this data set: Specific surface area by nitrogen gas adsorption (BET). In kind it is physicochemical. To be noted: relative pressure 0.05 to 0.3 (BET surface area). Here is the method: A specific surface area can be measured by, for example, but is not limited to, BET surface area measurement via nitrogen gas adsorption (relative pressure: 0.05 to 0.3).
Specific surface areas of iron(III) citrates of Comparative Examples 11 and 12 and Examples 1, 4, 5, 6, 7, and 10 to 23 were measured by nitrogen gas adsorption (relative pressure: 0.05 to 0.3) (BET surface area).
The compound `O=C([O-])CC(O)(CC(=O)[O-])C(=O)[O-].[Fe+3]` [Comparative Example 11, iron(III) citrate] displayed a Specific surface area of 0.80 m^2/g. The figure for `O=C([O-])CC(O)(CC(=O)[O-])C(=O)[O-].[Fe+3]` [Comparative Example 12, iron(III) citrate] is 0.62 m^2/g. Compound `O=C([O-])CC(O)(CC(=O)[O-])C(=O)[O-].[Fe+3]` [Example 1, iron(III) citrate] registered a Specific surface area of 21.8 m^2/g. With `O=C([O-])CC(O)(CC(=O)[O-])C(=O)[O-].[Fe+3]` [Example 4, iron(III) citrate], the Specific surface area worked out at 33.4 m^2/g. The figure for `O=C([O-])CC(O)(CC(=O)[O-])C(=O)[O-].[Fe+3]` [Example 5, Iron(III) citrate] is 31.0 m^2/g.

`O=C([O-])CC(O)(CC(=O)[O-])C(=O)[O-].[Fe+3]` [Example 6, Iron(III) citrate] gave a Specific surface area of 30.4 m^2/g. `O=C([O-])CC(O)(CC(=O)[O-])C(=O)[O-].[Fe+3]` [Example 7, Iron(III) citrate] gave a Specific surface area of 29.8 m^2/g. `O=C([O-])CC(O)(CC(=O)[O-])C(=O)[O-].[Fe+3]` [Example 10, Iron(III) citrate]: the Specific surface area came out at 29.9 m^2/g.

`O=C([O-])CC(O)(CC(=O)[O-])C(=O)[O-].[Fe+3]` [Example 11, Iron(III) citrate]: the Specific surface area was 30.0 m^2/g.

For `O=C([O-])CC(O)(CC(=O)[O-])C(=O)[O-].[Fe+3]` [Example 12, Iron(III) citrate], the Specific surface area is reported as 30.3 m^2/g. The same measure for `O=C([O-])CC(O)(CC(=O)[O-])C(=O)[O-].[Fe+3]` [Example 13, Iron(III) citrate]: 29.1 m^2/g; for `O=C([O-])CC(O)(CC(=O)[O-])C(=O)[O-].[Fe+3]` [Example 14, Iron(III) citrate]: 37.9 m^2/g.

In turn, `O=C([O-])CC(O)(CC(=O)[O-])C(=O)[O-].[Fe+3]` [Example 15, Iron(III) citrate] displayed a Specific surface area of 38.5 m^2/g. The figure for `O=C([O-])CC(O)(CC(=O)[O-])C(=O)[O-].[Fe+3]` [Example 16, Iron(III) citrate] is 33.7 m^2/g.

In turn, `O=C([O-])CC(O)(CC(=O)[O-])C(=O)[O-].[Fe+3]` [Example 17, Iron(III) citrate] registered a Specific surface area of 32.4 m^2/g.

`O=C([O-])CC(O)(CC(=O)[O-])C(=O)[O-].[Fe+3]` [Example 18, Iron(III) citrate] registered a Specific surface area of 39.9 m^2/g. The figure for `O=C([O-])CC(O)(CC(=O)[O-])C(=O)[O-].[Fe+3]` [Example 19, Iron(III) citrate] is 39.8 m^2/g; for `O=C([O-])CC(O)(CC(=O)[O-])C(=O)[O-].[Fe+3]` [Example 20, Iron(III) citrate] it is 33.8 m^2/g; for `O=C([O-])CC(O)(CC(=O)[O-])C(=O)[O-].[Fe+3]` [Example 21, Iron(III) citrate] it is 35.5 m^2/g. The figure for `O=C([O-])CC(O)(CC(=O)[O-])C(=O)[O-].[Fe+3]` [Example 22, Iron(III) citrate] is 32.6 m^2/g; for `O=C([O-])CC(O)(CC(=O)[O-])C(=O)[O-].[Fe+3]` [Example 23, Iron(III) citrate] it is 32.8 m^2/g.

The values are drawn from patent US9624155B2, “Iron (III) citrate, substantially free of beta-iron hydroxide oxide” (Japan Tobacco Inc., priority 2011, dated 2017).
